Reference: patent US20240139207A1, “METHODS FOR TREATING PULMONARY HYPERTENSION” (United Therapeutics Corporation, priority 2022, published 2024)

Tests used:
[1] = tested on: patients with pulmonary arterial hypertension; assay: Phase 4 open-label 16-week study: safety and tolerability, prostanoid-related adverse events; assay type: in vivo, human
Description: Safety and tolerability were assessed at each scheduled visit and in between visits as needed throughout the duration of the study. Tolerability measures of interest included incidence of all adverse events (AEs) and prostanoid-related AEs including headache, diarrhea, nausea, vomiting, flushing, jaw pain and extremity pain. […] Prostanoid-related events captured by the survey were only recorded if the event was unusual with respect to intensity, frequency, or duration compared to symptoms in the patient's medical history. Patient compliance with taking oral treprostinil was assessed by performing study drug accountability at each scheduled study visit. The primary endpoint and all efficacy endpoints were analyzed using the per-protocol population, which included all patients without major protocol deviations unless otherwise specified. The exact (Clopper-Pearson) 95% confidence interval was calculated for the primary endpoint. […] For continuous variables, descriptive statistics are reported as median (interquartile range, IQR or range) or mean (±standard deviation, SD). For categorical variables, descriptive statistics include frequency and percentage of patients in each category. Changes from baseline to Week 16 for continuous variables were analyzed using Wilcoxon signed rank test. The change in FC from baseline to Week 16 was analyzed using McNemar's test. The p-values from these tests were derived for descriptive purposes and not part of a formal hypothesis testing framework.

[2] = tested on: patients with pulmonary arterial hypertension; assay: Phase 4 open-label 16-week study: clinical parameters, risk stratification, patient-reported outcomes; assay type: in vivo, human
From the text: The secondary endpoints of this study included measurements in: changes in prostanoid adverse events (AEs), echocardiograms, change in 6-minute walk distance (6MWD), change in Borg dyspnea score, change in World Health Organization (WHO) functional class (FC), change in serum N-terminal pro-brain natriuretic peptide (NT-proBNP) levels, impact of pulmonary hypertension on a person's life (health-related quality of life), and treatment satisfaction. Specifically, this study sought to measure the percentage of subjects that improved in each of the following individual four clinical parameters at Week 16 (6MWD, NT-proBNP, WHO FC, right atrial area) to a lower risk stratum, as defined by the 2015 ESC/ERS guidelines (Gailè et al., DOI: 10.1183/13993003.01032-2015), compared to baseline measurements. An additional endpoint was determining the percentage of subjects that meet each of the following four individual clinical parameters at Week 16 in the low risk category, as defined by 2015 ESC/ERS guidelines: 6MWD>440 meters, […].
Based on the 2015 ESC/ERS Guidelines, specific hemodynamic inclusion criteria included a mean pulmonary arterial pressure ≥25 mmHg, pulmonary artery wedge pressure or left ventricular end-diastolic pressure ≤15 mmHg, and pulmonary vascular resistance >3 Wood units, in the absence of unrepaired congenital heart disease. Other key inclusion criteria were World Health Organization functional class (FC) II or III, 6-minute walk distance (6MWD)≥250 m, and a REVEAL 2.0 risk score ≤9 (Benza et al. 2021, DOI: https://doi.org/10.1016/j.chest.2020.08.2069). Patients could be receiving up to two oral PAH background therapies if taken at a stable dose for ≥30 days prior to baseline. As this study focused on the addition of a new therapy rather than the replacement of one therapy by another therapy, participants were eligible regardless of the number of pulmonary arterial hypertension background therapies (0, 1, or 2) they were receiving at baseline. […] Baseline assessments were collected up to 14 days prior to initiation of parenteral treprostinil, and included hemodynamics via echocardiogram and RHC, FC, N-terminal-pro brain natriuretic peptide (NT-proBNP), 6MWD, and medication history. Of note, historical RHC data could be used for baseline assessments if performed up to 180 days prior to initiating parenteral treprostinil. Echocardiograms were uploaded and stored in a central repository and evaluated by an independent central reader in accordance with the American Society of Echocardiography Guidelines (Bossone et al., DOI: 10.1016/j.echo.2012.10.009).
Once patients reached at least 20 ng/kg/min and were deemed suitable for transition based on physician assessment, they were transitioned at Week 2,4, or 8 to oral treprostinil via cross-titration in an inpatient or outpatient setting over 1-21 days. All participants still receiving parenteral treprostinil at Week 8 began transitioning to oral treprostinil regardless of their parenteral treprostinil dose unless deemed unsuitable for transition by their clinician. Before transition, 6MWD, WHO FC, NT-proBNP, and echocardiography parameters were assessed.
The primary endpoint was the percentage of patients who achieved an oral treprostinil TDD of at least 12 mg (0.171 mg/kg for patients <70 kg) at Week 16. Secondary endpoints included change from baseline to Week 16 in risk strata and clinical parameters, where baseline values were collected within 14 days prior to parenteral treprostinil initiation. Changes in risk strata for FC, NT-proBNP, 6MWD, and right atrial (RA) area were assessed using the 2015 ESC/ERS Guidelines, which categorizes risk for each determinant as low, intermediate, and high (Galiè et al., 2016). Clinical parameters of interest included FC, NT-proBNP, 6MWD, echocardiography parameters, REVEAL Lite 2 score (Benza et al., 2021), and Borg Dyspnea Score (Borg, 1982, DOI: https://doi.org/10.1249/00005768-198205000-00012). […]

[3] = tested on: Pulmonary hypertension patients; settings: cited from earlier work
[4] = Oral Treprostinil Phase (After Transition), n = 32
[5] = per-protocol population (n=29), while on the labelled form
[6] = 2015 ESC/ERS risk strata, baseline to Week 16

For `CCCCC[C@H](O)CC[C@@H]1[C@H]2Cc3cccc(OCC(=O)O)c3C[C@H]2C[C@H]1O` [oral treprostinil, treprostinil], the “Diarrhea, patients with AE” value [1, 4] was 17 (53) n (%), the “Extremity pain, patients with AE” value [1, 4] was 11 (34) n (%) and the “Flushing, patients with AE” value [1, 4] was 17 (53) n (%). The “Headache, patients with AE” value [1, 4] was 19 (59) n (%), the “Jaw pain, patients with AE” value [1, 4] was 16 (50) n (%) and the “Nausea, patients with AE” value [1, 4] was 21 (66) n (%). The “Vomiting, patients with AE” value [1, 4] was 9 (28) n (%), the “adverse events headache, nausea, and vomiting” value ([1]; after transition from Remodulin to Orenitram) was “tended to improve” and the “use of all concomitant medications” value ([1]; after transitioning from parenteral to oral treprostinil) was “decreased”. The “bothersomeness of extremity pain, jaw pain and headache” value ([1]; after transitioning to oral treprostinil, scale 1 bothers me a lot to 4 not at all bothersome) was “not at all bothersome”, the “most bothersome AE” value ([1]; during the phase of the labelled form) was “diarrhea and nausea” and the “participants who received acetaminophen for prostacyclin-related headache” value [1, 5] was 38%. The “participants who received loperamide for prostacyclin-related diarrhea” value [1, 5] was 38%, the “participants who received ondansetron for prostacyclin-related nausea/vomiting” value [1, 5] was 48% and the tolerability ([1]; three times daily) was “well tolerated”. The “percentage of patients who shifted to a lower risk stratum for 6MWD” value [2, 6] was 15%, the “percentage of patients who shifted to a lower risk stratum for FC” value [2, 6] was 39% and the “percentage of patients who shifted to a lower risk stratum for NT-proBNP” value [2, 6] was 39%. For the same compound, the “percentage of patients who shifted to a lower risk stratum for RA area” value [2, 6] was 35%, the “6MWD, median” value ([2]; Week 16) was 395 m and the “Borg Dyspnea Score, median” value ([2]; Week 16) was 3. The “NT-proBNP, median” value ([2]; Week 16) was 212 ng/L, the “REVEAL Lite 2 score, median” value ([2]; Week 16) was 3.5 and the “percentage of patients classified as FC I” value ([2]; Week 16 (0% at baseline)) was 46%. The “Borg Dyspnea Score, median change from baseline” value ([2]; baseline to Week 16) was −1, the “NT-proBNP, median change from baseline” value ([2]; baseline to Week 16) was -134 ng/L and the PAHSS domains ([2]; baseline to Week 16) was “improvements were seen in most domains”. For the same compound, the “REVEAL Lite 2 score, median change from baseline” value ([2]; baseline to Week 16) was −1, the “emPHasis- scores (quality of life), median change from baseline” value ([2]; baseline to Week 16) was −3 and the “patients improving in WHO FC” value ([2]; baseline to Week 16) was 68%. For the same compound, the “patients worsening in WHO FC” value ([2]; baseline to Week 16) was “one” and the “outcomes, including 6-minute walk distances, in patients who attained higher total daily doses” value [3] was “better outcomes”.
